Source: patent US7915050B2, “Regulatory genes for plant differentiation and growth, and use of the same” (National University Corporation Nagoya University, priority 2005, dated 2011)
Like-named read-outs stand apart in the source and are kept apart here.

What was measured:
GID1 [1] = molecular target: T1, GID1 (Oryza sativa subsp. japonica, UniProt Q6L545); assay: Saturation/Scatchard and association/dissociation analysis of GA binding to recombinant GID1; design: species or system rice
T1 construct: GST (tag of vector pGEX-4T) (N); made in house
T1 sequence (Q6L545 whole entry): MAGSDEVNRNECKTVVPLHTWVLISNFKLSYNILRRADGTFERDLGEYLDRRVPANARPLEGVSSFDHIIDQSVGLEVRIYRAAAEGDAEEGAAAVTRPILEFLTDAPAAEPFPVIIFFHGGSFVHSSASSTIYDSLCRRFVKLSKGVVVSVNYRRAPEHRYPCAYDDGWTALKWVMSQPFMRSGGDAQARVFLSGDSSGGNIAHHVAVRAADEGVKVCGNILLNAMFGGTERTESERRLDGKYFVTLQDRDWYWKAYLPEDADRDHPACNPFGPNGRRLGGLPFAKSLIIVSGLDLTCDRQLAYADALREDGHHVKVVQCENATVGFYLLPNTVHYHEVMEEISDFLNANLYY
Procedure: Panel a) depicts the saturability for the GA binding of GID1. […] Bar represents the standard deviation (n=3). Panel b) depicts the results of a Scatchard plot for the data of binding shown in a. The Kd value was calculated (correlation coefficient R^2=0.96) from t three independent experimental results. Panel c) depicts the ^3H-GA association/dissociation rate to GID1. […] Bar represents the standard deviation (n=3). […] Upper panel, none of three recombinant proteins of mutant GID1s (GID1-1, 1-2, and 1-3) corresponding to the three gid1 alleles interacted with GA4. […] Bar represents the standard deviation (n=3). Bottom panel, Coomassie brilliant blue stain of the recombinant proteins used in this experiment. Dot represents GID or tag proteins in the SDS-PAGE profile. In this experiment, almost equal amounts of proteins were used for each (80 pmol). Panel e) depicts the gross morphologies of a GID1-overexpressing plant (Actin1 promoter-GID1, right) and wild type plant (control, left) three months after seeding. Bar=50 cm. f) dose-dependent GA response in the elongation of the second leaf sheath of GID1overexpressing plant (closed triangle) and wild type (closed circle). Bar represents the standard deviation (n=5).
In the gibberellin-binding assay, [1,2,16,17-^3H4]16,17-dihydro-GA4 was used as a labeled GA4. In vitro GA-binding assays were carried out using previous methods with some modifications (Nakajima, M. et al., Biochem. Biophys. Res. Comm. 241, 782-786 (1997)). […] The eluate of the binding buffer (0.6 ml) was discarded, the subsequent eluate (0.2 ml) was collected, and the radioactivity was measured. The specific binding activity, reflecting the number of displaceable GA binding sites, was calculated by subtracting the amount of nonspecific binding from the amount of total binding. […]
Next, the kinetics of the binding of GID1 to GA was analyzed. To calculate the Kd value of GID1 to GA, the saturability of GA binding was measured using various concentrations of GA4 derivative (FIG. 4a). […]

AtGID1a = molecular target: T2, AtGID1a (Arabidopsis thaliana, UniProt Q9MAA7); assay: Competitive ability of GA in AtGID1-GA binding (AtGID1a); conditions: for IC50: tracer 15 nM, mean of at least two measurements
T2 construct: made in house; host or cells: E. coli
T2 sequence (Q9MAA7 1-345): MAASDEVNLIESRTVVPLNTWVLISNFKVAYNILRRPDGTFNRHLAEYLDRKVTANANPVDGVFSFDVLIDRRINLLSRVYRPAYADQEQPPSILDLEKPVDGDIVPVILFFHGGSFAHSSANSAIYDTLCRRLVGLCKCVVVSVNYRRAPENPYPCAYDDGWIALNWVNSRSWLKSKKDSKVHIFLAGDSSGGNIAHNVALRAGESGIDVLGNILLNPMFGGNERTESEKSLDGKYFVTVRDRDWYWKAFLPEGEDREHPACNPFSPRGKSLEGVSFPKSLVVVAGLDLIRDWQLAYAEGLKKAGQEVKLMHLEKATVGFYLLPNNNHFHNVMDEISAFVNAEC
Procedure: (§1) In the gibberellin-binding assay, [1,2,16,17-^3H4]16,17-dihydro-GA4 was used as a labeled GA4. In vitro GA-binding assays were carried out using previous methods with some modifications (Nakajima, M. et al., Biochem. Biophys. Res. Comm. 241, 782-786 (1997)). The purified recombinant GID1 protein (400 pmol) was dissolved in 300 μl of binding buffer [20 mM Tris-HCl (pH 7.6), 5 mM 2-mercaptoethanol, and 0.1 M NaCl], and incubated with 100 μl of ^3H4-16,17-dihydroGA4 (6 pmol) for two hours at 25° C., either in the absence of non-labeled GA4 (total binding) or in the presence of 833-fold excess non-labeled GA4 (total non-specific binding). Then, 0.1 ml of the reaction mixture was loaded onto a NAP-5 column (Amersham Biosciences, Piscataway, N.J.). The eluate of the binding buffer (0.6 ml) was discarded, the subsequent eluate (0.2 ml) was collected, and the radioactivity was measured. The specific binding activity, reflecting the number of displaceable GA binding sites, was calculated by subtracting the amount of nonspecific binding from the amount of total binding. The same as above can also be carried out for other GAs.
(§2) Specifically, the coding region of the AtGID1 gene was amplified by PCR using specific primers designed based on the full-length cDNA sequence of the AtGID1 gene and having appropriate restriction sites at each end. After confirmation by sequence analysis, each cDNA fragment was ligated into pET32a vector (Novagen/Merck Biosciences, Madison, Wis., USA) or pGEX-4T-2 vector (Amersham Biosciences, Piscataway, N.J., USA; currently, a part of GE Healthcare). The production of recombinant proteins was confirmed by SDS-PAGE; vector cassettes were used as negative controls. GA binding assays were carried out similarly as described above using [1,2,16,17-^3H4]-16,17-dihydro-GA4 (4.55 TBq/mmol), which was custom-made by DuPont/NEN (Boston, Mass., USA). Non-labeled GA4 (1.25 mM) was used to measure non-specific binding. Saturation experiments for the kinetic analysis were carried out using ten concentrations of 16,17-dihydro-GA4 within the range of 25 to 1,500 nM. Competition assays were performed using [1,2,16,17-^3H4]-16,17-dihydro-GA4 at 15 nM and five concentrations of the non-labeled competitor. Recombinant RGA and GAI proteins were prepared using pET32a by a previously described method.
(§3) The ligand selectivity of each AtGID1 was examined by observing the competitive inhibition, by the addition of GA to the assay mixtures, of the binding between the recombinant proteins and tritiated 16,17-dihydro-GA4 (Table 2). The ligand selectivity was evaluated using the concentration of GA that inhibits 50% of the tracer (15 nM) binding (IC50 value).

AtGID1c = molecular target: T3, AtGID1c (Arabidopsis thaliana, UniProt Q940G6); assay: Competitive ability of GA in AtGID1-GA binding (AtGID1c); conditions: for IC50: tracer 15 nM, mean of at least two measurements
T3 construct: made in house; host or cells: E. coli
T3 sequence (Q940G6 1-344): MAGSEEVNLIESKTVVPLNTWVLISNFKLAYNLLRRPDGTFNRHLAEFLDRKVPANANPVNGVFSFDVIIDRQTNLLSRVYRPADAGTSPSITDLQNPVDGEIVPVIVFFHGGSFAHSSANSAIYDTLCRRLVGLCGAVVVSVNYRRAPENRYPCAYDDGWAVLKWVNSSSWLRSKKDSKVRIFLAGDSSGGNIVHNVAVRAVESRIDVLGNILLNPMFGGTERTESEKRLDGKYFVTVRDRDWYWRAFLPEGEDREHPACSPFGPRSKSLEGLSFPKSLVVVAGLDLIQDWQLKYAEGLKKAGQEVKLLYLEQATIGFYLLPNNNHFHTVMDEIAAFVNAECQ
Procedure: as §1, §2, §3

AtGID1b = molecular target: T4, AtGID1b (Arabidopsis thaliana, UniProt Q9LYC1); assay: Competitive ability of GA in AtGID1-GA binding (AtGID1b); conditions: for IC50: tracer 15 nM, mean of at least two measurements
T4 construct: made in house; host or cells: E. coli
T4 sequence (Q9LYC1 1-358): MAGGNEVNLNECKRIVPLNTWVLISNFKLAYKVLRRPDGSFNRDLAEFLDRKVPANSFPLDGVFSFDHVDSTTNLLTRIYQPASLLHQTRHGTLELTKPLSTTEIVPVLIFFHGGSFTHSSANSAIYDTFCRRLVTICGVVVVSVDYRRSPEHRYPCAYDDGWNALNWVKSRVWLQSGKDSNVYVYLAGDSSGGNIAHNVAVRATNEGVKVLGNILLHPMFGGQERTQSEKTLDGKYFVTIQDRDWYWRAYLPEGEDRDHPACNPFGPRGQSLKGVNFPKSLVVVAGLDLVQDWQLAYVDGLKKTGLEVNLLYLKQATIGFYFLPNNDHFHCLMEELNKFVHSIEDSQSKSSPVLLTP
Procedure: as §1, §2, §3

GID1 [2] = molecular target: T1, GID1; assay: Competition of various GAs in the binding of the 3H-GA4 derivative to GID1 protein; design: species or system rice; conditions: for IC50: competition with tritiated GA4 derivative for binding to recombinant GID1, read-out: IC50 (concentration required for 50% inhibition); for Rel % (relative value): relative competition, GA4 given as 100
Procedure: as §1
Thus, it was postulated that, like GID2, GID1 is involved in the degradation of SLR1, or that GID1 functions upstream of SLR1 in GA signaling. […] Based on this phenotypic characteristic of gid1, it was predicted that GID1 was involved in GA perception. To verify this possibility, the interactions between GID1 and radioisotope-labeled GA was directly examined using non-equilibrium gel filtration (Nakajima, M. et al., Biochem. Biophys. Res. Comm. 241, 782-786 (1997)). […] Next, ligand specificity of GID1 was tested by using competition between the tritiated GA4 derivative and various GAs. The concentration of each GA that is required for a 50% inhibition (IC50) of the binding of the tritiated GA4 derivative to GID1 is shown in Table 1. […] The IC50 value for each of these GAs was well consistent with their physiological activity.

| Substance | half-time required for association/dissociation (GID1 [1]) | half-time required for association/dissociation (GID1 [1]; listed as GA4 derivative) | relative value, taking the value for GA4 as 100 (AtGID1a) | IC50 (AtGID1a) | relative value, taking the value for GA4 as 100 (AtGID1c) | IC50 (AtGID1c) | relative value, taking the value for GA4 as 100 (AtGID1b) | IC50 (AtGID1b) | IC50 (GID1 [2]) | Rel % (relative value) (GID1 [2]) |
| --- | --- | --- | --- | --- | --- | --- | --- | --- | --- | --- |
| [1,2,16,17-^3H4]16,17-dihydro-GA4 [^3H4-16,17-dihydroGA4] | within several minutes | several minutes or less | – | – | – | – | – | – | – | – |
| methyl ester of GA4 [GA4-Me] | – | – | (0.1) % | 300 µM | (0.3) % | 90 µM | (0.3) % | 9 µM | 30 µM | (0.6) % |
| 3-epi-GA4 | – | – | (<0.1) % | > 300 µM | (<0.1) % | > 300 µM | (<0.1) % | 100 µM | > 200 µM | (<0.1) % |
